Source: patent US10054581B1, “Inhibitors of notch signaling pathway and use thereof in treatment of cancers” (Ecole Polytechnique Federale de Lausanne (EPFL), priority 2011, dated 2018)
“Also recorded” adds a separate entry of the source.

Test system: Notch signalling via DL4:N1 ligand-receptor pair (Notch1)
Experiment: DL4:N1 coculture assay, Notch driven luciferase reporter
Format: cell-based, mouse
Settings: DL4-N1 coculture assay; for Notch inhibitory activity of derivatives compared to parental compound I3: FIG. 10
Description: Mouse DL4-IRES dsRED cDNA was cloned into a pENTR1 vector (Invitrogen®) and finally shuttled into a destination lentivirus vector using Gateway cloning strategy (Invitrogen). A Phosphoglycerate kinase (PGK) promoter drove the expression of DL4 protein. DL4-lentiviral particles were produced in 293T cells by cotransfection of DL4-lentivirus vector, Gag/pol expression plasmid and plasmid encoding for viral envelope proteins. To overexpress Notch1 protein, mouse full length Notch1 cDNA was a cloned in a pCDNA3.1-IRES-puromycin vector. Notch1 cDNA was cloned upstream of IRES-puromycin between HindIII and XbaI restriction sites. A CMV promoter controlled the expression of Notch1 protein.
To measure the Notch signalling activation, CSL/RBP-jk consensus DNA binding sequences were cloned in a head to tail conformation in the pGL4 luciferase vector (Promega), thus named 12×CSL/RBP-jjk luciferase vector. In order to determine the Notch pathway activation in chemical compound screening assay, 12×CSL/RBP-jk consensus DNA binding sequences were cloned into pGL4.26.luciferase vector (Promega). As an internal control for transfection efficiency, SV40 Renilla vector was used (Promega).
In order to generate DL4 and N1 stable cell lines, HeLa cell were bought from ATCC (catalog # CCL-2). To generate DL4 stable lines, cells were transduced with DL4-lentiviral particles. DL4 stable clones were selected using puromycin. High DL4 expressing clones were sorted using antibodies against DL4 with Fluorescence activated cell sorting (FACS). To generate N1 stable line, cell were transfected with a pCDNA3.1+(Invitrogen) plasmid containing mouse full length Notch1 under the control of CMV promoter. To select for Notch1 expressing clones, an IRES puromycin cassette was cloned downstream of Notch1 cDNA. HeLa cells expressing high levels of Notch1 were enriched by FACS using anti-Notch1 antibodies. DL4- and N1-HeLa cells were cultured in DMEM (GIBCO, Invitrogen), 10% FCS and 10 ug/ml of puromycin (Sigma).
For chemical library screen, the coculture assay was performed as follows. N1-HeLa cells were cotransfected in 10 cm tissue culture dishes with 16 μg of pGL4.26. 12×CSL.luciferase vector/plate, 4 μg of Notch1 expression plasmid/plate, and 200 ng of SV40 Renilla vector/plate. DL4- and N1-HeLa cells were detached from the plate by using 0.5 mM EDTA (1×PBS). The both cell populations were counted and mixed in 1:1 ratio (5,000:5,000 cells/well in a 384 well plate) and dispensed into 384 well plates (white, clear bottom, Corning) using multidrop Combi plate dispenser. The assay plates were pre-dispensed (using automated Biomek 3000 liquid handler) with chemical compound libraries (Microsource NIMDS, Maybridge Hitfinder and Prestwick) to give a final concentration of 10 μM. The final assay volume was 22 μls. Twenty-four hours later, growth media was aspirated and cells were lysed with 1× Passive lysis buffer for 10 minutes at room temperature. Luciferase activity was measured using Luciferase Assay Reagent II and Renilla values were determined by using Stop and Glow reagent (Dual luciferase assay system, Cat #E1980, Promega). Luciferase and renilla readouts were taken using Tecan® F500 (Tecan) multiplate reader. All the liquid handling steps (aspiration of the medium, dispensing of Passive lysis buffer, Luciferase Assay Reagent II and Stop and Glow reagents) were performed using ELF406 liquid handler.
In order to identify novel modulators of the Notch pathway, Applicants have established a coculture assay in which DL4 ligand expressing HeLa cells were cultured with N1 HeLa cells, thereby activating the Notch pathway. The use of a DL4 and N1 HeLa cell coculture system mimics physiological conditions of cell-cell communication between ligand and receptor expressing cells. The in vitro generation of a controlled receptor-ligand assay system allowed Applicants to modify and monitor the Notch signal intensity by γ-secretase inhibitors. […]

SMILES | ability to block Notch pathway activation in coculture assay (screening of derivatives) | Notch inhibitory activity of derivatives compared to parental compound I3
Nc1ccc(Oc2ccc(C3CCCCC3)cc2)c(F)c1 [I3-L, 4-(4-cyclohexylphenoxy)-3-fluoroaniline] | ability to block Notch pathway activation in coculture assay | –
CCC(C)(C)c1ccc(Oc2ccc(N)cn2)cc1 [I3-B, 6-(4-(tert-Pentyl)phenoxy)pyridin-3-amine] | ability to block Notch pathway activation in coculture assay | block Notch signalling to comparable levels to parental compound I3; also recorded: exhibit anti-Notch activity comparable to 6-(4-Tert-Butylphenoxy)Pyridin-3-Amine (I3)
CC(C)(C)c1cccc(Oc2ccc(N)cn2)c1 [I3-H, 6-(3-(tert-butyl)phenoxy)pyridin-3-amine] | ability to block Notch pathway activation in coculture assay | block Notch signalling to comparable levels to parental compound I3; also recorded: exhibit anti-Notch activity comparable to 6-(4-Tert-Butylphenoxy)Pyridin-3-Amine (I3)
Nc1ccc(Oc2ccc(C34CC5CC(CC(C5)C3)C4)cc2)nc1 [I3-G, 6-(4-((3r,5r,7r)-adamantan-1-yl)phenoxy)pyridin-3-amine] | ability to block Notch pathway activation in coculture assay | block Notch signalling to comparable levels to parental compound I3; also recorded: exhibit anti-Notch activity comparable to 6-(4-Tert-Butylphenoxy)Pyridin-3-Amine (I3)
Nc1ccc(Oc2ccc(C3CCCCC3)cc2)cc1 [I3-F, 4-(4-cyclohexylphenoxy)aniline] | ability to block Notch pathway activation in coculture assay | appear to have enhanced activity
CCC(C)(C)c1ccc(Oc2ccc(N)cc2)cc1 [I3-E, 4-(4-(tert-pentyl)phenoxy)aniline] | ability to block Notch pathway activation in coculture assay | block Notch signalling to comparable levels to parental compound I3; also recorded: exhibit anti-Notch activity comparable to 6-(4-Tert-Butylphenoxy)Pyridin-3-Amine (I3)
CC(C)(C)c1ccc(Oc2ccc(N)cc2)cc1 [I3-C, 4-(4-(tert-butyl)phenoxy)aniline] | ability to block Notch pathway activation in coculture assay | block Notch signalling to comparable levels to parental compound I3; also recorded: exhibit anti-Notch activity comparable to 6-(4-Tert-Butylphenoxy)Pyridin-3-Amine (I3)
CCC(C)(C)c1ccc(Oc2ccc(N)cc2F)cc1 [I3-M, 3-fluoro-4-(4-(tert-pentyl)phenoxy)aniline] | ability to block Notch pathway activation in coculture assay | block Notch signalling to comparable levels to parental compound I3; also recorded: exhibit anti-Notch activity comparable to 6-(4-Tert-Butylphenoxy)Pyridin-3-Amine (I3)
Nc1ccc(Oc2ccc(C34CC5CC(CC(C5)C3)C4)cc2)c(F)c1 [I3-P, 4-(4-((3r,5r,7r)-adamantan-1-yl)phenoxy)-3-fluoroaniline] | ability to block Notch pathway activation in coculture assay | –
Nc1ccc(Oc2ccc(C34CC5CC(CC(C5)C3)C4)cc2)cc1 [I3-O, 4-(4-((3r,5r,7r)-adamantan-1-yl)phenoxy)aniline] | ability to block Notch pathway activation in coculture assay | –
CC(C)(C)c1ccc(Oc2ccc(N)cc2F)cc1 [I3-I, 4-(4-(tert-butyl)phenoxy)-3-fluoroaniline] | ability to block Notch pathway activation in coculture assay | appear to have enhanced activity
CCCCc1ccc(Oc2ccc(N)cn2)cc1 [I3-D, 6-(4-Butylphenoxy)pyridin-3-amine] | ability to block Notch pathway activation in coculture assay | –
CC(C)(C)CC(C)(C)c1ccc(Oc2ccc(N)cn2)cc1 [I3-K, 6-(4-(2,4,4-trimethylpentan-2-yl)phenoxy)pyridin-3-amine] | ability to block Notch pathway activation in coculture assay | –
Nc1ccc(Oc2ccc(C3CCCCC3)cc2)nc1 [I3-A, 6-(4-cyclohexylphenoxy)pyridin-3-amine] | ability to block Notch pathway activation in coculture assay | block Notch signalling to comparable levels to parental compound I3; also recorded: exhibit anti-Notch activity comparable to 6-(4-Tert-Butylphenoxy)Pyridin-3-Amine (I3)
CCCC(C)(C)c1ccc(Oc2ccc(N)cn2)cc1 [I3-N, 6-(4-(2-methylpentan-2-yl)phenoxy)pyridin-3-amine] | ability to block Notch pathway activation in coculture assay | block Notch signalling to comparable levels to parental compound I3; also recorded: exhibit anti-Notch activity comparable to 6-(4-Tert-Butylphenoxy)Pyridin-3-Amine (I3)
CC(C)c1ccc(Oc2ccc(N)cc2)cc1 [I3-J, 4-(4-isopropylphenoxy)aniline] | ability to block Notch pathway activation in coculture assay | –
